From ChEMBL document CHEMBL1149262, “Monoamine transporter binding, locomotor activity, and drug discrimination properties of 3-(4-substituted-phenyl)tropane-2-carboxylic acid methyl ester isomers” (J Med Chem, 2004)
The source made the active and inactive calls. The rule behind the calls is not given here.

Columns and labels:
Mus musculus [1] = assay: Locomotor activity in CD1 mouse assessed as stimulation at 10 mg/kg, ip after 2 hrs relative to control; assay type: functional; details: route intraperitoneal
Mus musculus [2] = assay: Locomotor activity in CD1 mouse assessed as stimulation at 1 mg/kg, ip after 3 hrs relative to control; assay type: functional; details: route intraperitoneal
Mus musculus [3] = assay: Activity in CD1 mouse assessed as death at 100 mg/kg, ip after 4 hrs; assay type: functional, organism-based; parameters: dose 100 mg/kg
Rattus norvegicus [4] = assay: Drug discrimination effect in CD Albino rat assessed as percent of rat choosing cocaine lever at 1 mg/kg, ip; assay type: functional; details: route intraperitoneal
Rattus norvegicus [5] = assay: Drug discrimination effect in CD Albino rat assessed as percent of rat choosing cocaine lever at 5.6 mg/kg, ip; assay type: functional; details: route intraperitoneal
Mus musculus [6] = assay: Locomotor activity in CD1 mouse assessed as stimulation at 3 mg/kg, ip after 1 hr relative to control; assay type: functional; details: route intraperitoneal
Mus musculus [7] = assay: Locomotor activity in CD1 mouse assessed as stimulation at 30 mg/kg, ip after 4 hrs relative to control; assay type: functional; details: route intraperitoneal
Mus musculus [8] = assay: Locomotor activity in CD1 mouse assessed as stimulation at 30 mg/kg, ip after 1 hr relative to control; assay type: functional; details: route intraperitoneal
Mus musculus [9] = assay: Locomotor activity in CD1 mouse assessed as stimulation at 3 mg/kg, ip after 3 hrs relative to control; assay type: functional; details: route intraperitoneal
Mus musculus [10] = assay: Activity in CD1 mouse assessed as convulsions at 100 mg/kg, ip after 4 hrs; assay type: functional, organism-based; parameters: dose 100 mg/kg
Mus musculus [11] = assay: Locomotor activity in CD1 mouse assessed as stimulation at 30 mg/kg, ip after 2 hrs relative to control; assay type: functional; details: route intraperitoneal
Rattus norvegicus [12] = assay: Drug discrimination effect in CD Albino rat assessed as percent of rat choosing cocaine lever at 10 mg/kg, ip; assay type: functional; details: route intraperitoneal
Mus musculus [13] = assay: Locomotor activity in CD1 mouse assessed as stimulation at 3 mg/kg, ip after 2 hrs relative to control; assay type: functional; details: route intraperitoneal
Mus musculus [14] = assay: Activity in CD1 mouse assessed as flattened body posture at 100 mg/kg, ip after 4 hrs; assay type: functional, organism-based; parameters: dose 100 mg/kg
Mus musculus [15] = assay: Locomotor activity in CD1 mouse assessed as stimulation at 1 mg/kg, ip after 4 hrs relative to control; assay type: functional; details: route intraperitoneal
Mus musculus [16] = assay: Locomotor activity in CD1 mouse assessed as stimulation at 10 mg/kg, ip after 4 hrs relative to control; assay type: functional; details: route intraperitoneal
Mus musculus [17] = assay: Locomotor activity in CD1 mouse assessed as stimulation at 30 mg/kg, ip after 3 hrs relative to control; assay type: functional; details: route intraperitoneal
Mus musculus [18] = assay: Locomotor activity in CD1 mouse assessed as stimulation at 10 mg/kg, ip after 3 hrs relative to control; assay type: functional; details: route intraperitoneal
Mus musculus [19] = assay: Locomotor activity in CD1 mouse assessed as stimulation at 1 mg/kg, ip after 2 hrs relative to control; assay type: functional; details: route intraperitoneal
Mus musculus [20] = assay: Locomotor activity in CD1 mouse assessed as stimulation at 10 mg/kg, ip after 1 hr relative to control; assay type: functional; details: route intraperitoneal
Mus musculus [21] = assay: Locomotor activity in CD1 mouse assessed as stimulation at 1 mg/kg, ip after 1 hr relative to control; assay type: functional; details: route intraperitoneal
Mus musculus [22] = assay: Locomotor activity in CD1 mouse assessed as stimulation at 3 mg/kg, ip after 4 hrs relative to control; assay type: functional; details: route intraperitoneal
Mus musculus [23] = assay: Activity in CD1 mouse assessed as hypoactivity at 100 mg/kg, ip after 4 hrs; assay type: functional, organism-based; parameters: dose 100 mg/kg
Rattus norvegicus [24] = assay: Drug discrimination effect in CD Albino rat assessed as percent of rat choosing cocaine lever at 3 mg/kg, ip; assay type: functional; details: route intraperitoneal
[25] = target: Sodium-dependent dopamine transporter (Homo sapiens, UniProt Q01959); assay: Displacement of [3H]WIN-35428 from DAT
Mus musculus [26] = assay: Locomotor activity in CD1 mouse assessed as stimulation at 100 mg/kg, ip after 1 hr relative to control; assay type: functional; details: route intraperitoneal
Rattus norvegicus [27] = assay: Cocaine discrimination in ip dosed CD Albino rat; assay type: functional
Mus musculus [28] = assay: Activity in CD1 mouse assessed as stereotypy at 100 mg/kg, ip after 4 hrs; assay type: functional, organism-based; parameters: dose 100 mg/kg
Mus musculus [29] = assay: Activity in CD1 mouse assessed as stimulation at 100 mg/kg, ip after 4 hrs; assay type: functional, organism-based; parameters: dose 100 mg/kg
Rattus norvegicus [30] = assay: Drug discrimination effect in CD Albino rat assessed as percent of rat choosing cocaine lever at 1.7 mg/kg, ip; assay type: functional; details: route intraperitoneal
Mus musculus [31] = assay: Activity in CD1 mouse assessed as hyperactivity at 10 mg/kg, ip after 4 hrs; assay type: functional, organism-based; parameters: dose 10 mg/kg
Mus musculus [32] = assay: Activity in CD1 mouse assessed as circling at 100 mg/kg, ip after 4 hrs; assay type: functional, organism-based; parameters: dose 100 mg/kg
Mus musculus [33] = assay: Locomotor activity in CD1 mouse assessed as stimulation at 100 mg/kg, ip after 4 hrs relative to control; assay type: functional; details: route intraperitoneal
Mus musculus [34] = assay: Locomotor activity in CD1 mouse assessed as stimulation at 100 mg/kg, ip after 3 hrs relative to control; assay type: functional; details: route intraperitoneal
Mus musculus [35] = assay: Locomotor activity in ip dosed CD1 mouse in peak hour; assay type: functional
Mus musculus [36] = assay: Locomotor activity in CD1 mouse assessed as stimulation at 100 mg/kg, ip after 2 hrs relative to control; assay type: functional; details: route intraperitoneal
Mus musculus [37] = assay: Locomotor activity in CD1 mouse assessed as stimulation at 0.1 mg/kg, ip after 1 hr relative to control; assay type: functional; details: route intraperitoneal
[38] = target: Sodium-dependent noradrenaline transporter (Homo sapiens, UniProt P23975); assay: Displacement of [3H]nisoxetine from NET
Mus musculus [39] = assay: Locomotor activity in CD1 mouse assessed as stimulation at 0.3 mg/kg, ip after 1 hr relative to control; assay type: functional; details: route intraperitoneal
Mus musculus [40] = assay: Activity in CD1 mouse assessed as hyperactivity at 1 mg/kg, ip after 4 hrs; assay type: functional, organism-based; parameters: dose 1 mg/kg
Mus musculus [41] = assay: Activity in CD1 mouse assessed as slight or intermittent hyperactivity at 100 mg/kg, ip after 4 hrs; assay type: functional, organism-based; parameters: dose 100 mg/kg
Mus musculus [42] = assay: Locomotor activity in CD1 mouse assessed as stimulation at 0.1 mg/kg, ip after 3 hrs relative to control; assay type: functional; details: route intraperitoneal
Mus musculus [43] = assay: Locomotor activity in CD1 mouse assessed as stimulation at 0.3 mg/kg, ip after 2 hrs relative to control; assay type: functional; details: route intraperitoneal
Rattus norvegicus [44] = assay: Drug discrimination effect in CD Albino rat assessed as percent of rat choosing cocaine lever at 0.1 mg/kg, ip; assay type: functional; details: route intraperitoneal
Mus musculus [45] = assay: Activity in CD1 mouse assessed as hind limb splay at 100 mg/kg, ip after 4 hrs; assay type: functional, organism-based; parameters: dose 100 mg/kg; details: Hindlimb
Mus musculus [46] = assay: Activity in CD1 mouse assessed as stereotypy at 1 mg/kg, ip after 4 hrs; assay type: functional, organism-based; parameters: dose 1 mg/kg
Rattus norvegicus [47] = assay: Drug discrimination effect in CD Albino rat assessed as percent of rat choosing cocaine lever at 0.17 mg/kg, ip; assay type: functional; details: route intraperitoneal
Mus musculus [48] = assay: Activity in CD1 mouse assessed as stereotypy at 10 mg/kg, ip after 4 hrs; assay type: functional, organism-based; parameters: dose 10 mg/kg
Mus musculus [49] = assay: Activity in CD1 mouse assessed as circling at 1 mg/kg, ip after 4 hrs; assay type: functional, organism-based; parameters: dose 1 mg/kg
Mus musculus [50] = assay: Locomotor activity in ip dosed CD1 mouse after 1 hr relative to cocaine; assay type: functional
Mus musculus [51] = assay: Locomotor activity in CD1 mouse assessed as stimulation at 0.3 mg/kg, ip after 3 hrs relative to control; assay type: functional; details: route intraperitoneal
[52] = target: Sodium-dependent serotonin transporter (Homo sapiens, UniProt P31645)
Description: Displacement of [3H]paroxetine from 5HTT

Rattus norvegicus [53] = assay: Drug discrimination effect in CD Albino rat assessed as percent of rat choosing cocaine lever at 0.3 mg/kg, ip; assay type: functional; details: route intraperitoneal
Mus musculus [54] = assay: Locomotor activity in CD1 mouse assessed as stimulation at 0.1 mg/kg, ip after 4 hrs relative to control; assay type: functional; details: route intraperitoneal
Mus musculus [55] = assay: Locomotor activity in CD1 mouse assessed as stimulation at 0.1 mg/kg, ip after 2 hrs relative to control; assay type: functional; details: route intraperitoneal
Mus musculus [56] = assay: Activity in CD1 mouse assessed as circling at 10 mg/kg, ip after 4 hrs; assay type: functional, organism-based; parameters: dose 10 mg/kg
Mus musculus [57] = assay: Locomotor activity in CD1 mouse assessed as stimulation at 0.3 mg/kg, ip after 4 hrs relative to control; assay type: functional; details: route intraperitoneal
Mus musculus [58] = assay: Activity in CD1 mouse assessed as slight or intermittent hyperactivity at 10 mg/kg, ip after 4 hrs; assay type: functional, organism-based; parameters: dose 10 mg/kg

Chain of Sodium-dependent noradrenaline transporter (P23975 whole entry): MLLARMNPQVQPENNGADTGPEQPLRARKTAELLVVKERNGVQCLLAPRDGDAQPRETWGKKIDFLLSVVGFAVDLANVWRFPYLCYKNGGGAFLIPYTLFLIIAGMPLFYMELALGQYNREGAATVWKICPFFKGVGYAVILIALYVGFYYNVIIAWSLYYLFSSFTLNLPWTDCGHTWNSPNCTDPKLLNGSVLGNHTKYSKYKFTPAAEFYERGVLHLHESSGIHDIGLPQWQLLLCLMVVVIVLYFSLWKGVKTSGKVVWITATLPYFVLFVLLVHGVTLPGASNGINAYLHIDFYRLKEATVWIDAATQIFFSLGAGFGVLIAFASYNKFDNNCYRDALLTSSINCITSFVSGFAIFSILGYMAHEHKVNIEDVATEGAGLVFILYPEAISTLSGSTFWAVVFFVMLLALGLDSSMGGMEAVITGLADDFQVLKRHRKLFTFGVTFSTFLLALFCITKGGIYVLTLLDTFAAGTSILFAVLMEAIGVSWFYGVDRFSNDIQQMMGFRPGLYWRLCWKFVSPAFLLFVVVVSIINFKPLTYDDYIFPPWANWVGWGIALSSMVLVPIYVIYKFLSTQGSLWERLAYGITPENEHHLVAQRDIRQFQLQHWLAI
Chain of Sodium-dependent dopamine transporter (Q01959 whole entry): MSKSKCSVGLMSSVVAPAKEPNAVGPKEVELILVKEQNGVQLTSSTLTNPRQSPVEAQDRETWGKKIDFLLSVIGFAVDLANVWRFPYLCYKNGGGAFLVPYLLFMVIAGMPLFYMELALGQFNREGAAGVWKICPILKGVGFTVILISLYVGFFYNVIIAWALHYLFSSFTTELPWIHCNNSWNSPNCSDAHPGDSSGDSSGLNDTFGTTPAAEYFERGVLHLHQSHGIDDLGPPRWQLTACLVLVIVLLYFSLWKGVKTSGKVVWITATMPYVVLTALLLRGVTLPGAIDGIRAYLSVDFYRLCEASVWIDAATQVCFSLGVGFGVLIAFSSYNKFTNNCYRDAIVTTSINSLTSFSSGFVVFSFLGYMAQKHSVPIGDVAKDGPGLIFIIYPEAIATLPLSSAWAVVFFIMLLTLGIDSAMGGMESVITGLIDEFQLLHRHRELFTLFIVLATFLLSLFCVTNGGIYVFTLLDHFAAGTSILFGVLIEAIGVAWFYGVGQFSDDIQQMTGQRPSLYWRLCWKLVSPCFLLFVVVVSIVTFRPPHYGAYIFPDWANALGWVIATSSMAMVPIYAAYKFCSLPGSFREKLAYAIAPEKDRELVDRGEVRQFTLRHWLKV
Chain of Sodium-dependent serotonin transporter (P31645 whole entry): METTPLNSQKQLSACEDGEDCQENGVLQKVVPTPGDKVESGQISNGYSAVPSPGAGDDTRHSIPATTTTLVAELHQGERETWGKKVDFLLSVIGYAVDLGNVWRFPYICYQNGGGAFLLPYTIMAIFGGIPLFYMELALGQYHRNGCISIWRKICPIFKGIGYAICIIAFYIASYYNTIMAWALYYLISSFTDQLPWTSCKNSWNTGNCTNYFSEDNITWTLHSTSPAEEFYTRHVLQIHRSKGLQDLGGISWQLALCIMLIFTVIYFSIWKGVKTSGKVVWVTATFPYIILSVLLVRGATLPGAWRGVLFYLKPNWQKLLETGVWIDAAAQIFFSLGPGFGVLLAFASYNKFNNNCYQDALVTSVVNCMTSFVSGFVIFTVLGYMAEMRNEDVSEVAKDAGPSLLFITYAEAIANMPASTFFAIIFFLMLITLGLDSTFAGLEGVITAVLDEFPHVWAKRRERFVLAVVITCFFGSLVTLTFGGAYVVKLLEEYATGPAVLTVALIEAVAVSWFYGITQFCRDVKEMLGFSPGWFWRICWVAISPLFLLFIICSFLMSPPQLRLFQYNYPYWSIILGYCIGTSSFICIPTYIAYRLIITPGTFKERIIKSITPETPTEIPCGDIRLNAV

COC(=O)[C@H]1[C@H]2CCC(C[C@H]1c1ccc(Cl)cc1)N2C
Activity (Mus musculus [1]): 169%
Activity (Mus musculus [2]): 154%
Activity (Mus musculus [3]): Active
Activity (Rattus norvegicus [4]): 13%
Activity (Rattus norvegicus [5]): 13%
Activity (Mus musculus [6]): 16%
Activity (Mus musculus [7]): -27%
Activity (Mus musculus [8]): -46%
Activity (Mus musculus [9]): 107%
Activity (Mus musculus [10]): Active
Activity (Mus musculus [11]): -27%
Activity (Rattus norvegicus [12]): 13%
Activity (Mus musculus [13]): 128%
Activity (Mus musculus [14]): Active
Activity (Mus musculus [15]): 45%
Activity (Mus musculus [16]): 41%
Activity (Mus musculus [17]): 125%
Activity (Mus musculus [18]): 114%
Activity (Mus musculus [19]): 182%
Activity (Mus musculus [20]): 51%
Activity (Mus musculus [21]): 6%
Activity (Mus musculus [22]): 69%
Activity (Mus musculus [23]): Active
Activity (Rattus norvegicus [24]): 0%

COC(=O)[C@@H]1C2CCC(C[C@H]1c1ccc(Cl)cc1)N2C (stereo partly drawn)
Activity (Mus musculus [1]): 322%
IC50 [25]: 3.1 nM
Activity (Mus musculus [26]): 487%
ED50 (Rattus norvegicus [27]): 2.55 mg/kg
Activity (Mus musculus [28]): Active
Activity (Rattus norvegicus [4]): 25%
Activity (Rattus norvegicus [5]): 67%
Activity (Mus musculus [6]): 49%
Activity (Mus musculus [29]): Active
Activity (Mus musculus [7]): 158%
Activity (Rattus norvegicus [30]): 25%
Activity (Mus musculus [8]): 868%
Activity (Mus musculus [9]): 135%
Activity (Mus musculus [31]): Active
Activity (Mus musculus [11]): 1127%
Activity (Mus musculus [32]): Active
Activity (Rattus norvegicus [12]): 100%
Activity (Mus musculus [33]): 598%
Activity (Mus musculus [13]): 64%
Activity (Mus musculus [34]): 1065%
Activity (Mus musculus [16]): 11%
Activity (Mus musculus [17]): 1002%
Activity (Mus musculus [18]): 373%
ED50 (Mus musculus [35]): 9.1 mg/kg
Activity (Mus musculus [20]): 340%
Activity (Mus musculus [36]): 217%
Activity (Mus musculus [22]): 38%
Activity (Rattus norvegicus [24]): 67%

COC(=O)[C@@H]1C2CC[C@H](C[C@@H]1c1ccc(I)cc1)N2C
Activity (Mus musculus [37]): -12%
IC50 [38]: 36 nM
Ki [38]: 22 nM
Activity (Mus musculus [39]): 415%
Activity (Mus musculus [40]): Active
Activity (Mus musculus [2]): 2099%
IC50 [25]: 1.3 nM
Activity (Mus musculus [41]): Active
Activity (Mus musculus [42]): -25%
Activity (Mus musculus [43]): 1765%
Activity (Rattus norvegicus [44]): 22%
Activity (Mus musculus [45]): Active
Activity (Mus musculus [3]): Active
Activity (Mus musculus [46]): Active
ED50 (Rattus norvegicus [27]): 0.2 mg/kg
Activity (Rattus norvegicus [47]): 25%
Activity (Mus musculus [48]): Active
Activity (Mus musculus [28]): Active
Activity (Mus musculus [49]): Active
Activity (Mus musculus [6]): 770%
Ratio (Mus musculus [50]): 4.4
Activity (Mus musculus [51]): 1289%
Activity (Mus musculus [9]): 327%
Ki [52]: 0.38 nM
Activity (Rattus norvegicus [53]): 100%
Activity (Mus musculus [54]): 62%
Activity (Mus musculus [13]): 145%
Activity (Mus musculus [15]): 2546%
Activity (Mus musculus [55]): 38%
Activity (Mus musculus [19]): 1721%
Activity (Mus musculus [56]): Active
ED50 (Mus musculus [35]): 0.4 mg/kg
Activity (Mus musculus [57]): 900%
Activity (Mus musculus [21]): 1489%
Activity (Mus musculus [58]): Active
Activity (Mus musculus [22]): 794%
